Assay results published in patent US6703362B1, “Random peptides that bind to gastro-intestinal tract (GIT) transport receptors and related methods” (Cytogen Corporation, priority 1997, dated 2004).

Columns and labels:
[1] = tested on: P100 membrane fraction derived from Caco-2 cells; assay: GST-PAX2 peptides relative binding to P100 fractions (ratio to GST-HAX42); details: 20 μg/ml GST-peptide; binding to plastic subtracted; GST-HAX42 = 1.00
Description: The peptides and proteins were analyzed by a dansylated peptide ELISA method in which 96 well plates were coated overnight at 4° C. with 100 μl/well coating protein (normally 100 μg/ml P100 membrane fraction) in 0.05M carbonate buffer pH9.6. Nonspecific binding was blocked using 200 μl/well, 2% Marvel/PBS for 2 hours at 37° C. prior to incubation with dansylated peptides. The plates were washed three times with PBS/0.05% Tween 20 and after each subsequent incubation step. […] A buffer blank control was included to ensure that background binding to plastic was not due to the antibodies used in the assay system. […] The plates were then incubated with an anti-mouse X-HRP conjugated antibody (Southern Biotech 1060-05) at a 1:10,000 dilution in blocking solution, 100 μl/well for 1 hour at room temperature. Plates were developed using 75 μl/well Bionostics TMB substrate and incubated for approximately 10 minutes. The developing reaction was stopped using Bionostics Red Stop solution (25 μl/well), and the optical density of the plates was read at 650nm.
After subtraction of the GST-peptide binding to plastic from P100 binding values, the binding of GST-PAX2 peptides were represented as a ratio of GST-HAX42 binding to P100, which was given the arbitrary value of 1.00. The following ratios were determined from binding to P100 of GST-peptides at a peptide concentration of 20 μg/ml. Bold denotes positive binding to the P100 membrane fraction.

[2] = molecular target: T1, hSI (Homo sapiens, UniProt P14410); assay: Phage receptor ELISA on hSI; format: binding; details: for OD, binding to hSI: Table 1, phage panned on hSI, absorbance 650 nm; for hSI/BSA: ratio of hSI to BSA binding
T1 construct: made in house
Description: (§1) 96 well plates were coated overnight with GIT receptor, BSA and, optionally, IDE (insulin degrading enzyme, an irrelevant His-fusion protein)or hTF. The plates were 5 blocked for one hour with 0.5% BSA-PBS. After clarification, the amplified phage were diluted 1:100 in […] plus 0.05% Tween 20 in PBS and added to the plates. Following incubation of the plates on a rotator for 1 to 2 hours, the plates were washed 5 times with 1% BSA plus 0.05% Tween 20 in PBS. Dilute anti-M13-HRP conjugate (anti-M13 antibody linked to horse radish peroxidase (HRP)) was added to all the wells and the plate was incubated for one hour on a rotator. After the plates were washed 5 times, as described above, TMB substrate was added to the wells. The plates were read at 650 nm absorbance.

[3] = molecular target: BSA (Bos taurus, UniProt P02769); assay: Phage ELISA on BSA (background control protein); format: binding
Description: as §1

[4] = Isoelectric points of synthetic peptides; format: physicochemical
[5] = molecular target: T2, hPEPT1 (Homo sapiens, UniProt P46059); assay: Phage receptor ELISA on hPEPT1; format: binding; details: for OD, binding to hPEPT1: Table 4, phage panned on hPEPT1; for PEPT1/BSA: ratio of hPEPT1 to BSA binding
T2 construct: 391-571; made in house
T2 sequence (P46059 391-571): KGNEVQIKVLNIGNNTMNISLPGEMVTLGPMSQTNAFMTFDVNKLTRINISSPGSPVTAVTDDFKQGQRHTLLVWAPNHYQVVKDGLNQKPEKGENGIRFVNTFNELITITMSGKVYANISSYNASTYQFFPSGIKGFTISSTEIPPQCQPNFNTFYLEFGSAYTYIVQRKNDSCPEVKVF
Description: as §1

[6] = tested on: intestinal tissue; assay: Preselected phage libraries, rat closed loop: absorption/internalization to intestinal tissue (hybridization autoradiograph); format: in vivo; details: for binding to the intestine / found in the intestine samples: hPEPT1 pool of phages; for found in the intestinal samples fractions: D2H pool of phages
[7] = molecular target: T3, D2H (Homo sapiens, UniProt Q07837); assay: Phage receptor ELISA on D2H; format: binding; details: Table 3; for D2H/BSA: ratio of D2H to BSA binding; for OD, binding to D2H: two rounds on D2H, third pan on Caco-2 snapwells
T3 construct: 387-685; made in house
T3 sequence (Q07837 387-685): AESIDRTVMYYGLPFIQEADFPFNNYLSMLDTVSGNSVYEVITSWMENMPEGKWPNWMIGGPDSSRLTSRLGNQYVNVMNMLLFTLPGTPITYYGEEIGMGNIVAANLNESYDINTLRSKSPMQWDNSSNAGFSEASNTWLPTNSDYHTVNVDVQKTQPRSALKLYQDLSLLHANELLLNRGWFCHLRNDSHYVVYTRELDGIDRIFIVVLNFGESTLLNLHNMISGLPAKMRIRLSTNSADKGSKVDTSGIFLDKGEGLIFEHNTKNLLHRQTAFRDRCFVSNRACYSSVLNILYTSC
Description: as §1

[8] = tested on: fixed Caco-2 or C2BBe1 cells; assay: ELISA of GST fusion proteins on fixed Caco-2 or C2BBe1 cells; format: binding
Description: Fixed Caco-2, C2BBe1, and A431 cell plates were prepared by growing cells on tissue culture treated microtiter plates. When cells were confluent, plates were fixed with 10% formaldehyde, washed twice with PBS and stored with 0.5%BSA-PBS at −20° C. […] The standard ELISA procedure was followed at this point.
The standard ELISA procedure was modified as follows. GST proteins were diluted to an appropriate concentration in PBS containing lkBSA and 0.05% Tween20 (1%BPT), titered and incubated one hour at room temperature. Following five washes an anti-GST monoclonal antibody was added (Sigma, St. Louis Clone GST-2 diluted 1:10,000 in 1%BPT) and incubated one hour. After five more washes goat anti-mouse IgG2b-HRP was added (Southern Biotechnology Associates Inc., Birmingham, Ala., diluted 1:4000 in 1%BPT) and incubated one hour. After five washes plates were developed with TMB peroxidase substrate (Kirkegard and Perry, Gaithersburg, Md.). All data is presented with background binding subtracted.

[9] = tested on: fixed Caco-2 cells; assay: Effect of thrombin cleavage on binding of GST-peptide fusions to fixed Caco-2 cells; details: thrombin 18 h at room temperature
Description: Binding of intact and thrombin-cleaved GST-peptide fusions to fixed Caco-2 cells was compared.
Thirty micrograms of each GST-peptide was treated with bovine thrombin (1 μ/ml; 0.4 NIH units; Sigma CN.T9681) for 18 h at room temperature in 2OmM Tris-HCl pH8.0, 150 mM NaCl, 2.5 mM CaCl2. Controls were similarly treated without addition of thrombin. Ten micrograms of each GST-peptide fusion was removed for PAGE analysis, and 10 μg of fusions were added in duplicate to the fixed Caco-2 cells before 5-fold serial dilutions (1% BPT diluent). The fusions were allowed to bind for 1 h at room temperature. Following 6 washes with 1% BPT, binding was assayed by ELISA.

Sequence of BSA (P02769 25-607): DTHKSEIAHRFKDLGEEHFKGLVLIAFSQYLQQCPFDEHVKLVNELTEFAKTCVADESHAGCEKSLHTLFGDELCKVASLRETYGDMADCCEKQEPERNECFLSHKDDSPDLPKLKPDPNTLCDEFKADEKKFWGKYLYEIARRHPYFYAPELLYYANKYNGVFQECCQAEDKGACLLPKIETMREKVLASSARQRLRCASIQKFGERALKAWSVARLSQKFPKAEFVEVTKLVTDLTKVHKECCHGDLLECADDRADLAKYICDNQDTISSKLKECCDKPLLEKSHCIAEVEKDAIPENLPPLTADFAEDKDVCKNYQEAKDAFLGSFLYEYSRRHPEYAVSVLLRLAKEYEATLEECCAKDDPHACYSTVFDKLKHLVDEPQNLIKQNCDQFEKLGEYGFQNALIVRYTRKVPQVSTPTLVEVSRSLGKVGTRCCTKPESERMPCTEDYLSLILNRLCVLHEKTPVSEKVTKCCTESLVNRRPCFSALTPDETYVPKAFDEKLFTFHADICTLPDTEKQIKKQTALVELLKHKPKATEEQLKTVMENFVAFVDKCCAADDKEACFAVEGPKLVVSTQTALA
T1 sequence (P14410 272-667): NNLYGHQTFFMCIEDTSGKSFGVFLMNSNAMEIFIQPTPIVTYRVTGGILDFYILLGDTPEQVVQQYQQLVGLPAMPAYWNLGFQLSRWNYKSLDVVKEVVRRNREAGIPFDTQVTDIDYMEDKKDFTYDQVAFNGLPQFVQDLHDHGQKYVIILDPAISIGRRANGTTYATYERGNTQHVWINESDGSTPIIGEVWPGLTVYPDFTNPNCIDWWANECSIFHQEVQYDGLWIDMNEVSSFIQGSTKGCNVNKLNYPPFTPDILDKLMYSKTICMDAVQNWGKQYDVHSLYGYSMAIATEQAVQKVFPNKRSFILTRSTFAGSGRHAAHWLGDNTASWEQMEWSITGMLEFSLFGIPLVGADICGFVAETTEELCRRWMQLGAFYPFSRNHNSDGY

## gst-RRLRTRSRPN [GST-115]
[1]
  Value (binding to P100 as ratio of GST-HAX42 binding): 0.36

## SPCGGSWGRFMQGGLFGGRTDGCGAHRNRTSASLEPPSSDY [SNi34]
[2]
  OD, binding to hSI: 0.761
  hSI/BSA: 7
[3]; Table 1, phage panned on hSI
  OD, binding to BSA: 0.115
[4]
  pI: 8.25

## RGSTGTAGGERSGVLNLHTRDNASGSGFKPWYPSNRGHK [Peptide 5PAX5]
[5]
  OD, binding to hPEPT1: 0.15
  PEPT1/BSA: 4
[3]; Table 4
  OD, binding to BSA: 0.036
[6]
  binding to the intestine / found in the intestine samples: not found in the intestine samples
[4]
  pI: 11.49

## RYKHDIGCDAGVDKKSSSVRGGCGAHSSPPRAGRGPRGTMVSRL [DCX8]
[7]
  D2H/BSA: 3
  OD, binding to D2H: 0.163
[3]; Table 3
  OD, binding to BSA: 0.063
[6]
  found in the intestinal samples fractions: to a much lesser extent
[4]
  pI: 11.03

## gst-RVGQCTDSDVRRPWARSCAHQGCGAGTRNSHGCITRPLRQASAH [GST-SNi10]
[8]
  binding to fixed Caco-2 or C2BBe1 cells relative to GST control: bound fixed Caco-2 or C2BBe1 cells
[9]
  effect of thrombin cleavage on detection of binding: significantly reduced detection of binding

## gst-TNAKHSSHN [GST-113]
[1]
  Value (binding to P100 as ratio of GST-HAX42 binding): 0.26

## gst-ENANTRKSSRSNPRGRRHP [GST-P31.103]
[8]
  binding of truncation to fixed Caco-2 cells relative to full-length fusion: bound almost as well as full-length P31
[9]
  effect of thrombin cleavage on detection of binding: significantly reduced detection of binding

## STPPSREAYSRPYSVDSDSDTNAKHSSHNRRLRTRSRPN [PAX2]
[6]
  binding to the intestine / found in the intestine samples: not found in the intestine samples
[4]
  pI: 11.26

## SQGSKQCMQYRTGRLTVGSEYGCGMNPARHATPAYPARLLPRYR [DCX11]
[7]
  D2H/BSA: 3
  OD, binding to D2H: 0.222
[3]; Table 3
  OD, binding to BSA: 0.071
[6]
  found in the intestinal samples fractions: found in the intestinal samples fractions
[4]
  pI: 10.44

## gst-SSHNRRLRTR [GST-114]
[1]
  Value (binding to P100 as ratio of GST-HAX42 binding): 0.17

## gst-STPPSREAYSRPYSVDSDSD [GST-104]
[1]
  Value (binding to P100 as ratio of GST-HAX42 binding): 0.01

## gst-TNAKHSSHNRRLRTRSRPN [GST-PAX2.106]
[8]
  binding of truncation to fixed Caco-2 cells relative to full-length fusion: bound similarly to full-length PAX2
[9]
  effect of thrombin cleavage on detection of binding: significantly reduced detection of binding
[1]
  Value (binding to P100 as ratio of GST-HAX42 binding): 2.71

## RVGQCTDSDVRRPWARSCAHQGCGAGTRNSHGCITRPLRQASAH [SNi10]
[2]
  OD, binding to hSI: 0.57
  hSI/BSA: 11
[3]; Table 1, phage panned on hSI
  OD, binding to BSA: 0.051
[4]
  pI: 10.45

## gst-RGSTGTAGGERSGVLNLHTRDNASGSGFKPWYPSNRGHK [GST-5PAX5]
[8]
  binding to fixed Caco-2 or C2BBe1 cells relative to GST control: weak to moderate binding

## gst-SRPYSVDSDSDTNAKHSSHNR [GST-105]
[1]
  Value (binding to P100 as ratio of GST-HAX42 binding): −0.08

## SARDSGPAEDGSRAVRLNGVENANTRKSSRSNPRGRRHP [Peptide P31]
[5]
  OD, binding to hPEPT1: 0.807
  PEPT1/BSA: 11
[3]; Table 4
  OD, binding to BSA: 0.075
[6]
  binding to the intestine / found in the intestine samples: preferential binding
[4]
  pI: 12.26

## RVGQCTDSDVRRPWARSCAHQGCGAGTRNSHGCITRPLRQASAH [Phage SNi10]
[6]; hSI pool of phages
  found in the intestine samples or fractions: found in the intestine samples or fractions

## gst-SPCGGGSWGRFMQGGLFGGRTDGCGAHRNRTSASLEPPSSDY [GST-SNi34]
[8]
  binding to fixed Caco-2 or C2BBe1 cells relative to GST control: bound fixed Caco-2 or C2BBe1 cells
